The values below come from patent US11345676B2, “Apoptosis signal-regulating kinase 1 (ASK 1) inhibitor compounds” (PHARMAKEA, INC., priority 2017, dated 2022).

pIC50: −log10 of the molar value. Structures can show the parent of a compound that is named as a salt.

The target of this experiment is ASK1 (Homo sapiens (Human), UniProt Q99683). In words: Human ASK1 ADP-Glo kinase assay. In kind it is biochemical. The settings on record: recombinant ASK1 (amino acids 649-946), 50 μM ATP, MBP substrate. As for the experimental part: Example B-1: Human ASK1 ADP-Glo Assay
Sequence of ASK1 (Q99683 649-946): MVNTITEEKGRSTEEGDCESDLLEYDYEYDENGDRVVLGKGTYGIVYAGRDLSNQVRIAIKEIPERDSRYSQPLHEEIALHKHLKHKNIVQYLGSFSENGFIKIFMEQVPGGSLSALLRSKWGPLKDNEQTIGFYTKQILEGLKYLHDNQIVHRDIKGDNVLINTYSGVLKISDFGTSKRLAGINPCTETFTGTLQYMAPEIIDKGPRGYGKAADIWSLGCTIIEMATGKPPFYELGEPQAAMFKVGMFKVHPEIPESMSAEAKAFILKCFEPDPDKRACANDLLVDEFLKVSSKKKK
The ability of test compounds to inhibit ASK1 kinase activity was determined using the luminescent ADP-Glo™ Kinase Assay and Myelin Basic Protein (MBP) as a substrate (Promega Corporation, Madison, Wis.). During the kinase reaction, ASK1 utilizes ATP and generates ADP. The remaining ATP is then depleted by addition of the ADP-Glo™ reagent which also terminates the reaction. Subsequent addition of the Kinase Detection Reagent converts the ADP that was produced during the kinase reaction to ATP, and this newly synthesized ATP is converted to light using the luciferase/luciferin reactions. The assay was performed according to the manufacturer's instructions. Briefly, purified, recombinant ASK1 (amino acids 649-946) (10-20 ng/well) was added to a 384-well, F bottom, small volume, HIbase, white plate (Greiner Bio-One, Monroe, N.C. #784075) containing 1-2 μL 5× test compound or vehicle control (diluted 1:20 from a 100% DMSO stock solution into 1× Reaction Buffer A). The enzyme was allowed to pre-incubate with test compound from 15-120 min at 30° C. before the addition of the ATP/substrate mix (final concentrations of 50 μM ATP+250 ng MBP in 1× Reaction Buffer A). The mixture was then incubated at room temperature for 40 min before the addition of ADP-Glo™ reagent and a second 40 minute room temperature incubation. Following the addition of the Kinase Detection Reagent, the plate was incubated for an additional 40 min at room temperature before reading luminescence on a FlexStation 3 (Molecular Devices, Sunnyvale, Calif.). Maximum activity was determined from wells treated with vehicle and was set to 100% and minimum activity was determined from wells containing no enzyme and this was set to 0%. Percent inhibition was calculated relative to the controls and the data graphed in Collaborative Drug Discovery (CDD) Vault (Burlingame, Calif.).
In general terms: ADP-Glo first removes unused ATP, then detects ADP through luciferase.
In the case of `CC(C)n1cnnc1-c1cccc(NC(=O)c2cccc(Oc3cc(C#N)cc(C(F)(F)F)n3)c2)n1` [Compound 1-23, 3-((4-Cyano-6-(trifluoromethyl)pyridin-2-yl)oxy)-N-(6-(4-isopropyl-4H-1,2,4-triazol-3-yl)pyridin-2-yl)benzamide], the pIC50 was above 6.52.
`CC(C)n1cnnc1-c1cccc(NC(=O)c2cccc(Oc3cc(C(=O)O)cc(C(F)(F)F)n3)c2)n1` [Compound 1-24, 2-(3-((6-(4-Isopropyl-4H-1,2,4-triazol-3-yl)pyridin-2-yl)carbamoyl)phenoxy)-6-(trifluoromethyl)isonicotinic acid trifluoroacetate]: the negative logarithm of the IC50 (pIC50) was 6.00 to 6.52.
On to `CC(C)n1cnnc1-c1cccc(NC(=O)c2cccc(OCc3ccccc3)c2)n1` [Compound 1-179, 3-(Benzyloxy)-N-(6-(4-isopropyl-4H-1,2,4-triazol-3-yl)pyridin-2-yl)benzamide], for which the pIC50 is above 6.52.
In the case of `CC(C)n1cnnc1-c1cccc(NC(=O)c2cccc(OCc3cccnc3)c2)n1` [Compound 1-181, N-(6-(4-Isopropyl-4H-1,2,4-triazol-3-yl)pyridin-2-yl)-3-(pyridin-3-ylmethoxy)benzamide hydrochloride] it was above 6.52; in that of `CC(C)n1cnnc1-c1cccc(NC(=O)c2cc(Oc3ccccn3)ccc2F)n1` [Compound 1-210, 2-Fluoro-N-(6-(4-isopropyl-4H-1,2,4-triazol-3-yl)pyridin-2-yl)-5-(pyridin-2-yloxy)benzamide hydrochloride], above 6.52; in that of `CC(C)n1cnnc1-c1cccc(NC(=O)c2cc(Oc3cccnc3)ccc2F)n1` [Compound 1-211, 2-Fluoro-N-(6-(4-isopropyl-4H-1,2,4-triazol-3-yl)pyridin-2-yl)-5-(pyridin-3-yloxy)benzamide hydrochloride], above 6.52.
In the case of `CC(C)n1cnnc1-c1cccc(NC(=O)c2cc(Oc3cccc(C4CC4)n3)ccc2F)n1` [Compound 1-213, 5-((6-Cyclopropylpyridin-2-yl)oxy)-2-fluoro-N-(6-(4-isopropyl-4H-1,2,4-triazol-3-yl)pyridin-2-yl)benzamide trifluoroacetate] it was above 6.52; in that of `CC(C)n1cnnc1-c1cccc(NC(=O)c2cc(Oc3ccncn3)ccc2F)n1` [Compound 1-217, 2-Fluoro-N-(6-(4-isopropyl-4H-1,2,4-triazol-3-yl)pyridin-2-yl)-5-(pyrimidin-4-yloxy)benzamide hydrochloride], above 6.52; in that of `CC(C)n1cnnc1-c1cccc(NC(=O)c2cc(Oc3cccc(C(F)(F)F)n3)ccc2F)c1` [Compound 1-223, 2-Fluoro-N-(3-(4-isopropyl-4H-1,2,4-triazol-3-yl)phenyl)-5-((6-(trifluoromethyl)pyridin-2-yl)oxy)benzamide hydrochloride], above 6.52.
Consider `CC(C)n1cnnc1-c1cccc(NC(=O)c2cc(Oc3cccc(N4CCCC4)n3)ccc2F)n1` [Compound 1-225, 2-Fluoro-N-(6-(4-isopropyl-4H-1,2,4-triazol-3-yl)pyridin-2-yl)-5-((6-(pyrrolidin-1-yl)pyridin-2-yl)oxy)benzamide hydrochloride], for which the pIC50 was 6.00 to 6.52.
Take `CC(C)n1cnnc1-c1cccc(NC(=O)c2cc(Oc3ccc(C4CC4)cn3)ccc2F)n1` [Compound 1-227, 5-((5-Cyclopropylpyridin-2-yl)oxy)-2-fluoro-N-(6-(4-isopropyl-4H-1,2,4-triazol-3-yl)pyridin-2-yl)benzamide hydrochloride]: the negative-log IC50 (pIC50) is above 6.52.
The result for `CC(C)n1cnnc1-c1cccc(NC(=O)c2cc(NC(=O)c3ccccc3)ccc2F)n1` [Compound 1-305, 5-Benzamido-2-fluoro-N-(6-(4-isopropyl-4H-1,2,4-triazol-3-yl)pyridin-2-yl) benzamide hydrochloride] reads above 6.52; that for `CC(C)n1cnnc1-c1cccc(NC(=O)c2cc(NC(=O)c3ccccn3)ccc2F)n1` [Compound 1-307, N-(4-Fluoro-3-((6-(4-isopropyl-4H-1,2,4-triazol-3-yl)pyridin-2-yl)carbamoyl)phenyl)picolinamide hydrochloride], above 6.52.
As for `CC(C)n1cnnc1-c1cccc(NC(=O)c2cc(NC(=O)c3cccnc3)ccc2F)n1` [Compound 1-308, N-(4-Fluoro-3-((6-(4-isopropyl-4H-1,2,4-triazol-3-yl)pyridin-2-yl)carbamoyl)phenyl)nicotinamide hydrochloride], the pIC50 is above 6.52.
The result for `CC(C)n1cnnc1-c1cccc(NC(=O)c2cc(NC(=O)c3ccncc3)ccc2F)n1` [Compound 1-309, N-(4-Fluoro-3-((6-(4-isopropyl-4H-1,2,4-triazol-3-yl)pyridin-2-yl)carbamoyl)phenyl)isonicotinamide dihydrochloride] reads above 6.52; that for `CC(C)n1cnnc1-c1cccc(NC(=O)c2cc(NC(=O)c3ccc(Br)cn3)ccc2F)n1` [Compound 1-311, 5-Bromo-N-(4-fluoro-3-((6-(4-isopropyl-4H-1,2,4-triazol-3-yl)pyridin-2-yl)carbamoyl)phenyl)picolinamide hydrochloride], above 6.52.
With `CC(C)n1cnnc1-c1cccc(NC(=O)c2cc(NC(=O)c3cncnc3)ccc2F)n1` [Compound 1-313, N-(4-Fluoro-3-((6-(4-isopropyl-4H-1,2,4-triazol-3-yl)pyridin-2-yl)carbamoyl)phenyl)pyrimidine-5-carboxamide hydrochloride], the negative logarithm of the IC50 (pIC50) was above 6.52.
Consider `CC(C)n1cnnc1-c1cccc(NC(=O)c2cc(NC(=O)c3ncccn3)ccc2F)n1` [Compound 1-314, N-(4-Fluoro-3-((6-(4-isopropyl-4H-1,2,4-triazol-3-yl)pyridin-2-yl)carbamoyl)phenyl)pyrimidine-2-carboxamide trifluoroacetate], for which the pIC50 is above 6.52.
The result for `CC(C)(C)OC(=O)NCc1cc(Oc2ccnc(C(=O)Nc3cccc(-c4nncn4C4CC4)n3)c2)nc(C(F)(F)F)c1` [Compound 1-329, tert-Butyl ((2-((2-((6-(4-cyclopropyl-4H-1,2,4-triazol-3-yl)pyridin-2-yl)carbamoyl)pyridin-4-yl)oxy)-6-(trifluoromethyl)pyridin-4-yl)methyl)carbamate] reads 6.00 to 6.52; that for `CC(C)n1cnnc1-c1cccc(NC(=O)c2cc(NC(=O)c3cc(CN)ccn3)ccc2F)n1` [Compound 1-332, 4-(Aminomethyl)-N-(4-fluoro-3-((6-(4-isopropyl-4H-1,2,4-triazol-3-yl)pyridin-2-yl)carbamoyl)phenyl)picolinamide hydrochloride], above 6.52.
Take `CC(C)n1cnnc1-c1cccc(NC(=O)c2cc(NC(=O)Cc3ccccc3)ccc2F)n1` [Compound 1-333, 2-Fluoro-N-(6-(4-isopropyl-4H-1,2,4-triazol-3-yl)pyridin-2-yl)-5-(2-phenylacetamido)benzamide trifluoroacetate]: the pIC50 was above 6.52.
With `CC(C)n1cnnc1-c1cccc(NC(=O)c2cc(NC(=O)c3ccc(F)c(F)c3)ccc2F)n1` [Compound 1-334, 5-(3,4-Difluorobenzamido)-2-fluoro-N-(6-(4-isopropyl-4H-1,2,4-triazol-3-yl)pyridin-2-yl)benzamide hydrochloride], the negative logarithm of the IC50 (pIC50) was above 6.52.
In the case of `CC(C)n1cnnc1-c1cccc(NC(=O)c2cc(NC(=O)c3ccc(C(=O)O)cc3)ccc2F)n1` [Compound 1-335, 4-((4-Fluoro-3-((6-(4-isopropyl-4H-1,2,4-triazol-3-yl)pyridin-2-yl)carbamoyl)phenyl)carbamoyl)benzoic acid sodium salt] it was above 6.52; in that of `CC(C)n1cnnc1-c1cccc(NC(=O)c2cc(Oc3cccc(Br)n3)ccc2F)n1` [Compound 1-336, 5-((6-Bromopyridin-2-yl)oxy)-2-fluoro-N-(6-(4-isopropyl-4H-1,2,4-triazol-3-yl)pyridin-2-yl)benzamide hydrochloride], above 6.52; in that of `CC(C)n1cnnc1-c1cccc(NC(=O)c2cc(Oc3ccc(Br)cn3)ccc2F)n1` [Compound 1-337, 5-((5-Bromopyridin-2-yl)oxy)-2-fluoro-N-(6-(4-isopropyl-4H-1,2,4-triazol-3-yl)pyridin-2-yl)benzamide hydrochloride], 6.00 to 6.52.
In the case of `O=C(Nc1ccc(F)c(C(=O)Nc2cccc(-c3nncn3C(CF)CF)n2)c1)c1ccccc1` [Compound 1-340, 5-Benzamido-N-(6-(4-(1,3-difluoropropan-2-yl)-4H-1,2,4-triazol-3-yl)pyridin-2-yl)-2-fluorobenzamide hydrochloride] it was above 6.52; in that of `C[C@H](CO)n1cnnc1-c1cccc(NC(=O)c2cc(NC(=O)c3ccccc3)ccc2F)n1` [Compound 1-341, (R)-5-Benzamido-2-fluoro-N-(6-(4-(1-hydroxypropan-2-yl)-4H-1,2,4-triazol-3-yl)pyridin-2-yl)benzamide], above 6.52.
The result for `C[C@H](CO)n1cnnc1-c1cccc(NC(=O)c2cc(Nc3ccc(F)cc3)ccc2F)n1` [Compound 1-342, (R)-2-Fluoro-5-((4-fluorophenyl)amino)-N-(6-(4-(1-hydroxypropan-2-yl)-4H-1,2,4-triazol-3-yl)pyridin-2-yl)benzamide] reads 6.00 to 6.52.

For orientation: pIC50 means −log10 of the IC50, conventionally taken in molar units.
